From ChEMBL document CHEMBL1153550, “In vitro study of Candida tropicalis isolates exhibiting paradoxical growth in the presence of high concentrations of caspofungin” (2007)
Values after ≈ are worked out from the molar mass of the structure shown.

How the values were obtained:
Type in all cases: functional
[1] = system: Candida tropicalis; assay: Antifungal activity against Candida tropicalis isolate 15 in RPMI 1640 medium by broth dilution susceptibility test
[2] = system: Candida tropicalis; assay: Antifungal activity against Candida tropicalis isolate 4 in RPMI 1640 medium by broth dilution susceptibility test
[3] = system: Candida tropicalis; assay: Antifungal activity against Candida tropicalis ATCC 750 in RPMI 1640 medium by broth dilution susceptibility test
[4] = system: Candida tropicalis; assay: Antifungal activity against Candida tropicalis isolate 6 in RPMI 1640 medium by broth dilution susceptibility test
[5] = system: Candida tropicalis; assay: Antifungal activity against Candida tropicalis isolate 13 in RPMI 1640 medium by broth dilution susceptibility test
[6] = system: Candida tropicalis; assay: Antifungal activity against Candida tropicalis isolate 8 in RPMI 1640 medium by broth dilution susceptibility test
[7] = system: Candida tropicalis; assay: Antifungal activity against Candida tropicalis isolate 5 in RPMI 1640 medium by broth dilution susceptibility test
[8] = system: Candida tropicalis; assay: Antifungal activity against Candida tropicalis isolate 7 in RPMI 1640 medium by broth dilution susceptibility test

| SMILES | MIC [1] [µg/mL] | MIC [2] [µg/mL] | MIC [3] [µg/mL] | MIC [4] [µg/mL] | MIC [5] [µg/mL] | MIC [6] [µg/mL] | MIC [7] [µg/mL] | MIC [8] [µg/mL] |
| --- | --- | --- | --- | --- | --- | --- | --- | --- |
| C[C@@H]1[C@H](O)[C@@H](C)/C=C/C=C/C=C/C=C/C=C/C=C/C=C/[C@H](O[C@@H]2O[C@H](C)[C@@H](O)[C@H](N)[C@@H]2O)C[C@@H]2O[C@](O)(C[C@@H](O)C[C@@H](O)[C@H](O)CC[C@@H](O)C[C@@H](O)CC(=O)O[C@H]1C)C[C@H](O)[C@H]2C(=O)O [AMPHOTERICIN B] | 2 (≈ 2.16 µM) | 2 (≈ 2.16 µM) | 1 (≈ 1.08 µM) | 2 (≈ 2.16 µM) | 2 (≈ 2.16 µM) | 2 (≈ 2.16 µM) | 2 (≈ 2.16 µM) | 2 (≈ 2.16 µM) |
| OC(Cn1cncn1)(Cn1cncn1)c1ccc(F)cc1F [FLUCONAZOLE] | 0.25 (≈ 0.816 µM) | 0.5 (≈ 1.63 µM) | 1 (≈ 3.27 µM) | 0.25 (≈ 0.816 µM) | 0.5 (≈ 1.63 µM) | 0.5 (≈ 1.63 µM) | 0.25 (≈ 0.816 µM) | 0.25 (≈ 0.816 µM) |
| Nc1nc(=O)[nH]cc1F [FLUCYTOSINE] | 0.12 (≈ 0.93 µM) | 0.12 (≈ 0.93 µM) | 0.12 (≈ 0.93 µM) | 0.12 (≈ 0.93 µM) | 0.12 (≈ 0.93 µM) | 0.12 (≈ 0.93 µM) | 0.12 (≈ 0.93 µM) | 0.12 (≈ 0.93 µM) |
